Data set [1] deals with Human dermal fibroblasts. As to the kind of experiment: Cell adhesion, proliferation and viability on coated substrates (PrestoBlue, Vybrant MTT, CyQUANT). Type of data set: cell-based. The note with it: serum-free media, days 1, 4 and 8, 50 μL peptide 100 μM or protein 500 μg/mL. On the procedure: Human dermal fibroblasts (Invitrogen, UK) were maintained in Medium 106 supplemented with low serum growth supplement (2% v/v) and antibiotics (10 μg/mL gentamicin; 0.25 μg/mL amphotericin B) in […] culture flasks. The cells were incubated at 37° C., 5% CO2 and 95% air humidity. At 70-80% confluency cells were washed with PBS to remove the unattached cells and then adhered cells were trypsinised (trypsin/EDTA 0.025:0.01%) followed by trypsin neutraliser (all from Invitrogen, UK). The harvested cells (of passages 3 to 5) were seeded for subsequent cellular analysis.
Cells were seeded at a density of 4×10^3 in serum-free media for cell viability and proliferation assays on substrates (sterile 96 well plates) coated with 50 μL of peptide (100 μM) or protein (500 μg/mL). For cytoskeletal visualisation Nunc LabTek chambered cover glass slides were used as substrates.
Cell proliferation rates and viability were determined by PrestoBlue®, Vybrant® MTT and CyQUANT® assays on day 1, 4 and 8 (all from Life Technologies, UK).
PrestoBlue® reagent is supplied as a 10× solution and added to each well by diluting (1×) in the serum-free culture medium. The cells were incubated for 30 minutes at 37° C. in 200 μL of the reagent. The fluorescence of each well was measured with a microplate reader (BMG Labtech, Germany), with 544 nm excitation and 590 nm emission filters. Standard calibration curves were generated by plotting measured fluorescence values versus cell numbers. […]
Vybrant® MTT assay: For the colourimetric 3-(4, 5-dimethylthiazole-2-yl)-2, 5-diphenyl tetrazolium bromide (MTT) cell proliferation assay, the cell medium was removed from each well at the set time points and washed with PBS followed by the addition of MTT solution (10 μL, 5 mg/mL in PBS) and serum-free fresh media (100 μL). […] The absorbance intensity was measured by a microplate reader at 540 nm with a reference wavelength at 640 nm. Standard calibration curves were generated by plotting measured absorbance values versus cell numbers. […]

For a further data set, the system named is E. coli. Nature of the data set: Bacterial adhesion / biofilm formation on coated substrates (Live/Dead stain, PrestoBlue). The format is cell-based. The note with it: 16-hour incubations; E. coli and B. subtilis (FIGS. 12b, 13b, 13c, 14). The procedure: Bacterial inocula (E. coli and B. subtilis) were prepared in Mueller Hinton broth at A600 of 0.6, then diluted to 1:100 in the pre-warmed medium, and 50 μL of this dilution was added to each well of the coated Nunc LabTek chambered cover glass slides. Formed biofilms were analysed after 16-hour incubations using a Live/Dead BacLight bacterial viability stain kit (Molecular Probes, UK), and were visualised by a confocal laser scanning microscope (CLSM) (FV-1000, Olympus). Bacterial viability was quantitatively probed by using PrestoBlue® reagent, as used for the cell viability and proliferation assay. E. coli was seeded at the same density as above in sterile bare and coated 96-well plates. After 16 hours incubation at 37° C. (or 30° C. for B. subtilis), the biofilm formed on each substrate was carefully washed with 10 mM Tris-HCl buffer, pH 7, to remove bacteria remaining in suspension. Two hundred microliters of PrestoBlue® reagent diluted in Mueller Hinton broth were added to each well and incubated for 30 minutes at 37° C. The fluorescence of each well was measured using a microplate reader with 544 nm excitation and 590 nm emission filters.
FIG. 13b and FIG. 13c are fluorescence micrographs and total viable cell counts respectively determined by PrestoBlue® of E. coli after 16-hour incubations on different substrates. […]

The subject of data set [2] is Human dermal fibroblasts. As to the kind of experiment: Impedance measurements (xCELLigence) of cells on coated electrodes. Type of data set: cell-based. The note with it: serum-depleted medium. On the procedure:
Comparative impedance measurements using cell-electrode interfaces, which allow evaluating changes in effective impedance (resistance) to applied alternating current, provided further support for different cell proliferation patterns that were measured continuously in real time. Typically, cell attachments to electrode surfaces give impedance increases, whereas changes in cell morphology (cell rounding-up and detachment) cause impedance drops. Resistance traces that can correspond to different events including changes in cellular morphology, patterning and growth rates were recorded as a function of time, with cells seeded in a serum-depleted medium to avoid interferences by serum, which can modulate same signaling pathways for cell adhesion.
Impedance measurements were performed using an xCELLigence system according to the manufacturer's protocols (Roche, UK; ACEA Biosciences, USA). Each electrode array comprises 16 wells, each of which was first coated with assembled SaNet and protein solutions and background measurements were carried out prior to cell seeding. […] The electrical impedance of each well was automatically recorded every 5 min for the first 24 hours and then every 30 min till the end, and were normalised and expressed using the proprietary software as normalised cell index. Bacterial adhesions were measured every 5 min for over 15 hours. […]

The test system of another data set is E. coli (K12). Type of data set: cell-based. The note with it: K12, 24 h. On the procedure:
(§1) Minimum inhibitory concentrations (MIC) were determined by broth microdilution on P. aeruginosa ATCC 27853, E. coli K12, S. aureus ATCC 25723, M. luteus NCIMB 13267 and B. subtilis ATCC 6633 according to the Clinical and Laboratory Standards Institute. Typically, 100 μl of 0.5-1×10^6 CFU per ml of each bacterium in Mueller Hinton broth was incubated in 96 well plates with […] of serial two-fold dilutions of the peptides (final concentrations, 100-0 mM) at 37° C. (or 30° C. for B. subtilis and M. luteus) on a 3D orbital shaker. The absorbance was measured after peptide addition at 600 nm using a Victor 2 plate reader (Perkin Elmer). Minimum inhibitory concentrations (MICs) were defined as the lowest peptide concentration showing growth inhibition after 24 hours at 37° C. All tests were done in triplicate.

For the next data set, the system named is B. subtilis (ATCC 6633). Type of data set: cell-based. The note with it: ATCC 6633, 24 h. On the procedure:
as §1

The next data set relates to M. luteus. The format is cell-based. The note with it: 24 h. The procedure:
as §1

In another data set the test system is S. aureus (ATCC 6538). Type of data set: cell-based. The note with it: ATCC 6538, 24 h.
For data set [3], the system named is P. aeroginosa (ATCC 27853). The format is cell-based, P. aeruginosa. The note with it: ATCC 27853, 24 h. The procedure: as §1
A short description of data set [4]: Haemolysis of human erythrocytes. Type of data set: cell-based. The note with it: 10% (v/v) suspension, pH 7.2; 50% lysis of human erythrocytes, 1 hour, room temperature; read-out: LC50. The procedure: (§2) Haemolysis was determined by incubating 10% (v/v) suspension of human erythrocytes with peptides. Erythrocytes were rinsed 4 times in 10 mM PBS, pH 7.2, by repeated centrifugation and re-suspension (3 min, 3000×g). Erythrocytes were incubated at room temperature for 1 hour in either deionised water (fully haemolysed control), PBS or with peptide in PBS. After centrifugation at 10 000 g for 5 min, the supernatant was separated from the pellet and the absorbance measured at 550 nm. Absorbance of the suspension treated with deionised water defined complete haemolysis. The values given in Table 2 correspond to concentrations needed to kill a half of the sample population (50% lysis of human erythrocytes) and are expressed as median lethal concentrations—LC50. All tests were done in triplicate.

The next data set relates to Human erythrocytes. As to the kind of experiment: Haemolysis of human erythrocytes. The format is cell-based. The note with it: in words. On the procedure:
as §2

Data on four substances can be found in patent US10265403B2, “Cyclic peptide” (priority 2013, dated 2019).

Where no end group is shown, it is not given here. Bounds are passed on as bounds.

As for “KIAALKQKIAALKYEIAALE-am (KIAALKQKIAALKYEIAALE-NH2) [D2, individual linear second domain, negative non-assembling peptide control]”, the “cell adhesion and proliferation (total cells / total viable cells)” value in the data set on Human dermal fibroblasts [1] is given as “only negligible cellular responses”.

As to collagen, the “resistance against bacterial adhesion / biofilm formation” value with E. coli is “did not resist biofilm formation”. For the same substance, in the data set on Human dermal fibroblasts [1], the “cell adhesion and proliferation (total cells / total viable cells)” value is given as “comparable values”. Moreover, the “normalised impedance after second medium inoculation” value in the data set on Human dermal fibroblasts [2] is reported as “a gradually ascending phase in impedance”.

Consider “cyclo(AALEGGGEIAALEQEIAALEYKIAALKGGGKIAALKQKIAALKQEI) [SaNet]”, for which the MIC is 100 µM against E. coli (K12); 50 µM in the data set on B. subtilis (ATCC 6633); below 50 µM in the data set on M. luteus; above 100 µM against S. aureus (ATCC 6538); above 100 µM in [3]. In addition, the CC50 at 1 hour in data set [4] was above 600 µM. The haemolytic activity entry in the data set on Human erythrocytes is on record as “negligible”.

Regarding fibronectin, in the data set on E. coli, the “resistance against bacterial adhesion / biofilm formation” value is “did not resist biofilm formation”. Further, in the data set on Human dermal fibroblasts [1], the “cell adhesion and proliferation (total cells / total viable cells)” value was “comparable values”. Further, the “normalised impedance after second medium inoculation” value in the data set with Human dermal fibroblasts [2] was “steady decays in resistance curves”.
